Consider five molecules from US8481539B2, “Alkynylaryl compounds and salts thereof, pharmaceutical compositions comprising same, methods of preparing same and uses of same” (Bayer Intellectual Property GmbH, priority 2007, dated 2013).

Molecules are shown by their SMILES.

One test has as its target T1, human VEGFR2 (Homo sapiens, UniProt P35968).
T1 construct: GST-tagged recombinant kinase domain of the human VEGFR2; GST; host or cells: SF-9 cells
Description: VEGFR2 HTRF Assay (assay 5). The note with it: pIC50 class; 10 μM ATP; read-out: Enzymatic VEGFR2 activity (assay 5). It is filed as biochemical. The text has this: Assay 5: VEGFR2 HTRF Assay
VEGFR2 inhibitory activity of compounds of the present invention was quantified employing the VEGFR2 HTRF assay as described in the following paragraphs.
GST-tagged recombinant kinase domain of the human VEGFR2 expressed in SF-9 cells was used as kinase. As substrate for the kinase reaction the biotinylated peptide biotin-Ahx-DFGLARDMYDKEYYSVG (C-terminus in acid form) was used which can be purchased e.g. form the company Biosynthan GmbH (Berlin-Buch, Germany). VEGFR2 was incubated for 45 min at 22° C. in the presence of different concentrations of test compounds in 5 μl assay buffer [50 mM Hepes/NaOH pH 7.0, 25 mM MgCl2, 5 mM MnCl2, 1.0 mM dithiothreitol, 0.1 mM sodium ortho-vanadate, 10 μM adenosine-tri-phosphate (ATP), 0.5 μM substrate, 0.001% (v/v) Nonidet-P40 (Sigma), 1% (v/v) dimethylsulfoxide]. The concentration of VEGFR2 was adjusted depending of the activity of the enzyme lot and was chosen appropriate to have the assay in the linear range. The reaction was stopped by the addition of 5 μl of a solution of HTRF detection reagents (0.1 μM streptavidine-XLent and 2 nM PT66-Eu-Chelate, an europium-chelate labelled anti-phospho-tyrosine antibody from Perkin Elmer) in an aqueous EDTA-solution (125 mM EDTA, 0.2% (w/v) bovine serum albumin in 50 mM HEPES/NaOH pH 7.0).
(§1) The resulting mixture was incubated for 1 h at 22° C. to allow the binding of the biotinylated phosphorylated peptide to the streptavidine-XLent and the PT66-Eu-Chelate. Subsequently the amount of phosphorylated substrate was evaluated by measurement of the resonance energy transfer from the PT66-Eu-Chelate to the streptavidine-XLent. Therefore, the fluorescence emissions at 620 nm and 665 nm after excitation at 350 nm was measured in a HTRF reader, e.g. a Rubystar (BMG Labtechnologies, Offenburg, Germany) or a Viewlux (Perkin-Elmer). The ratio of the emissions at 665 nm and at […] was taken as the measure for the amount of phosphorylated substrate. The data were normalized (enzyme reaction without inhibitor=0% inhibition, all other assay components but no enzyme=100% inhibition) and IC50 values were calculated by a 4 parameter fit using an inhouse software.
A general note: In TR-FRET formats the signal depends on donor and acceptor labels being close together.

Another test deals with T2, Tie-2 (Homo sapiens, UniProt Q02763).
T2 construct: fusion protein of GST and the intracellular domains of Tie-2; GST; made in house; host or cells: insect cells (Hi-5)
T2 sequence (Q02763 770-1124 limits assumed, species assumed): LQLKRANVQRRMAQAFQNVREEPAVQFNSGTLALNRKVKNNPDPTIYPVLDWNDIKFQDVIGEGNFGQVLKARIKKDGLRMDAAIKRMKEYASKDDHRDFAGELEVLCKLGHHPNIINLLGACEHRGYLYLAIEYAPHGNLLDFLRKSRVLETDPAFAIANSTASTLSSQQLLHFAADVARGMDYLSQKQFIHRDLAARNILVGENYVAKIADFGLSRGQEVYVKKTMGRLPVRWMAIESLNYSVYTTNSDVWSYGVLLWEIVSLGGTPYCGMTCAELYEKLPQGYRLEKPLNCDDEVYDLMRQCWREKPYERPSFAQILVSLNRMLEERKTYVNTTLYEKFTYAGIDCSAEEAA
Description: Tie-2-Kinase HTRF-Assay (assay 2). It is filed as biochemical. Conditions: pIC50 class; 10 μM ATP; read-out: Enzymatic Tie 2 activity (assay 2).
From the text: Tie2-inhibitory activity of compounds of the present invention was quantified employing two Tie2 HTRF assay as described in the following paragraphs.
A recombinant fusion protein of GST and the intracellular domains of Tie-2, expressed in insect cells (Hi-5) and purified by Glutathion-Sepharose affinity chromatography was used as kinase. Alternatively, commercially available GST-Tie2-fusion protein (Upstate Biotechnology, Dundee, Scotland) can be used As substrate for the kinase reaction the biotinylated peptide biotin-Ahx-EPKDDAYPLYSDFG (C-terminus in amid form) was used which can be purchased e.g. from the company Biosynthan GmbH (Berlin-Buch, Germany). Detection of phosphorylated product is achieved specifically by a trimeric detection complex consisting of the phosphorylated substrate, streptavidin-XLent (SA-XLent) which binds to biotin, and Europium Cryptate-labeled anti-phosphotyrosine antibody PT66 which binds to phosphorylated tyrosine.
Tie-2 (3.5 ng/measurement point) was incubated for 60 min at 22° C. in the presence of 10 μM adenosine-tri-phosphate (ATP) and 1 μM substrate peptide (biotin-Ahx-EPKDDAYPLYSDFG-NH2) with different concentrations of test compounds (0 μM and concentrations in the range 0.001-20 μM) in 5 μl assay buffer [50 mM Hepes/NaOH pH 7, 10 mM MgCl2, 0.5 mM MnCl2, 1.0 mM dithiothreitol, 0.01% NP40, protease inhibitor mixture (“Complete w/o EDTA” from Roche, 1 tablet per 2.5 ml), 1% (v/v) dimethylsulfoxide]. The reaction was stopped by the addition of 5 μl of an aqueous buffer (25 mM Hepes/NaOH pH 7.5, 0.28% (w/v) bovine serum albumin) containing EDTA (90 mM) and the HTRF (Homogeneous Time Resolved Fluorescence) detection reagents streptavidine-XLent (0.2 μM, from Cis Biointemational, Marcoule, France) and PT66-Eu-Chelate (0.3 ng/μl; a europium-chelate labelled anti-phospho-tyrosine antibody from Perkin Elmer).
as §1, with “incubated” for “incubated for”, “substrate peptide” for “substrate”, “substrate peptide.” for “substrate.”, “normalised” for “normalized”, “inhibitor=0 (%” for “inhibitor=0%”

T1 sequence (P35968 834-1162 limits assumed): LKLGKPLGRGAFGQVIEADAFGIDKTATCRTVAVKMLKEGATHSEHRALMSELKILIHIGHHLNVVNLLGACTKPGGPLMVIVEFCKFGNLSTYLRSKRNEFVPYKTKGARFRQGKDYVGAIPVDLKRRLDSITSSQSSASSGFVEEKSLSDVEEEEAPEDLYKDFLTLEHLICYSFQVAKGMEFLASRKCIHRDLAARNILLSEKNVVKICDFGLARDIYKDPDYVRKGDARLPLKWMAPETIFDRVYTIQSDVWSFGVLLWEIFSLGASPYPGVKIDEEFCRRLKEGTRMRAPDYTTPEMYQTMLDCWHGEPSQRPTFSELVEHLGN

`Cn1ncc2c(C#Cc3cccc(NC(=O)c4cccc(C(F)(F)F)c4)c3)cncc21` [Example 1.5, N-[3-(1-Methyl-1H-pyrazolo[3,4-c]pyridin-4-ylethynyl)-phenyl]-3-trifluoromethyl-benzamide]: the IC50 at human VEGFR2 and at Tie-2 was less than 1000 nM throughout.
Regarding `Cc1ccc(NC(=O)c2cccc(C(F)(F)F)c2)cc1C#Cc1cncc2c1cnn2C` [Example 1.6, N-[4-Methyl-3-(1-methyl-1H-pyrazolo[3,4-c]pyridin-4-ylethynyl)-phenyl]-3-trifluoromethyl-benzamide], the IC50 at human VEGFR2 and on Tie-2 was less than 1000 nM each time.
Regarding `Cn1ncc2c(C#Cc3cc(NC(=O)c4cccc(C(F)(F)F)c4)ccc3F)cncc21` [Example 1.9, N-[4-Fluoro-3-(1-methyl-1H-pyrazolo[3,4-c]pyridin-4-ylethynyl)-phenyl]-3-trifluoromethyl-benzamide], the IC50 at human VEGFR2 and at Tie-2 was less than 1000 nM throughout.
In the case of `Cn1ncc2c(C#Cc3cccc(NC(=O)Nc4ccccc4)c3)cncc21` [Example 2.1, 1-[3-(1-Methyl-1H-pyrazolo[3,4-c]pyridin-4-ylethynyl)-phenyl]-3-phenyl-urea], the IC50 on human VEGFR2 and on Tie-2 was less than 1000 nM throughout.
For `Cc1ccc(NC(=O)Nc2cccc(C(F)(F)F)c2)cc1C#Cc1cncc2c1cnn2C` [Example 2.4, 1-[4-Methyl-3-(1-methyl-1H-pyrazolo[3,4-c]pyridin-4-ylethynyl)-phenyl]-3-(3-trifluoromethyl-phenyl)-urea], the IC50 on human VEGFR2 and on Tie-2 was less than 1000 nM throughout.
